Measurements as given in patent US12371454B2, “Cyclic peptide compound having Kras inhibitory action” (priority 2019, dated 2025).
Starred links: 1 amine or outer side, 2 acyl side, 3 side chain; linkers in the order of their positions; H or OH if unused. Positions of bridges follow the written chain, without caps; N, C: chain ends. Non-standard residues stand in square brackets, D forms with d. Residues, ends and D or L forms follow the SMILES beside them. *: point of attachment. hPhe(3,5-F2-4-CF3) = N[C@@H](CCc1cc(F)c(C(F)(F)F)c(F)c1)C(=O)O; hPhe(3-Cl-4-CF3) = N[C@@H](CCc1ccc(C(F)(F)F)c(Cl)c1)C(=O)O; hPhe(3-F,4-CF3) = N[C@@H](CCc1ccc(C(F)(F)F)c(F)c1)C(=O)O; NMeAla(4-thiazolyl) = CN[C@@H](Cc1cscn1)C(=O)O; NEtPhe(4-Cl) = CCN[C@@H](Cc1ccc(Cl)cc1)C(=O)O; 3Oxa8azabicyclo(3.2.1)octane = C1CC2COCC1N2*; NMeAbu(4,4,4-F3) = CN[C@@H](CC(F)(F)F)C(=O)O; NMePhe(4-Me) = CN[C@@H](Cc1ccc(C)cc1)C(=O)O; NMePhe(4-F) = CN[C@@H](Cc1ccc(F)cc1)C(=O)O; NMedβ3hAla = C[C@H](CC(=O)[*:2])N(C)[*:1]; NMeAla(cPent) = CN[C@@H](CC1CCCC1)C(=O)O; NMeGly(cPent) = CN[C@H](C(=O)O)C1CCCC1; NMeGly(cBu) = CN[C@H](C(=O)O)C1CCC1; NMeCha = CN[C@@H](CC1CCCCC1)C(=O)O; NMeChg = CN[C@H](C(=O)O)C1CCCCC1; NMeI = CC[C@H](C)[C@H](NC)C(=O)O; Gly(cBu) = N[C@H](C(=O)O)C1CCC1; NMeD = CN[C@@H](CC(=O)O)C(=O)O; NMeL = CN[C@@H](CC(C)C)C(=O)O; NMeV = CN[C@H](C(=O)O)C(C)C; d(β3hA) = C[C@@H](N)CC(=O)O; Morpholide = C1CN(*)CCO1; NMeA = CN[C@@H](C)C(=O)O; Piperidide = C1CCN(*)CC1; Pyrrolidide = C1CCN(*)C1; Ac5c = NC1(C(=O)O)CCCC1; Aze = O=C(O)[C@@H]1CCN1; Aib = CC(C)(N)C(=O)O; NEtG = CCNCC(=O)O; Sar = CNCC(=O)O

How the values were obtained:
[1] = tested on: Human pancreatic cancer cell line AsPC-1; experiment: Measurement of AsPC-1 cell growth inhibition (AsPC-1 CGI); type: cell-based; conditions: 96 h
How it was run: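 AsPC-1 cells in 15% FBS RPMI-1640 were exposed to test compound for 96 hours at 37° C, with CellTiter-Glo as endpoint.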

[2] = biological target: T1, Kras and SOS1 (biotin-tagged human Kras loaded with GDP, His-tagged human SOS1) (Homo sapiens, UniProt P01116, G12D); experiment: Protein-protein interaction inhibition between Kras and SOS1 (KrasGl2D-SOS PPI) using AlphaScreen; type: binding; conditions: AlphaScreen; biotin-tagged human Kras loaded with GDP, His-tagged human SOS1; read-out: KRAS G12D-SOS PPI IC50
T1 construct: made in house; host or cells: E. coli (stated for Kras only)
T1 sequence (P01116 1-188 isoform P01116-2 G12D): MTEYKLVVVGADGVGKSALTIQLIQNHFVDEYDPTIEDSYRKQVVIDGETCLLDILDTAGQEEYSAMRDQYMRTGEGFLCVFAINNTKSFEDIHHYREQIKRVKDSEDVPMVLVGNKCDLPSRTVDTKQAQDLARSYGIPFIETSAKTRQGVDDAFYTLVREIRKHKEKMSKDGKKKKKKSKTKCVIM
How it was run: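 Energy transfer from nickel-chelate donor beads bound to His-SOS1 to streptavidin acceptor beads bound to biotin-Kras, expressed in E. coli and loaded with GDP after purification, was monitored. Donors were excited at 680 nm; singlet oxygen reaching acceptors gave emission read at 520-620 nm.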

| Compound | IC50 [1] [nM] | IC50 [2] [nM] |
| --- | --- | --- |
| CC[C@H](C)[C@@H]1NC(=O)[C@H](CC2CCCCC2)N(C)C(=O)C[C@@H](C(=O)N2CCCCC2)N(C)C(=O)[C@H](C(C)C)N(C)C(=O)C2(CCCC2)NC(=O)[C@@H]2CCCN2C(=O)[C@H](CCc2ccc(C(F)(F)F)c(Cl)c2)NC(=O)CN(C)C(=O)[C@H](CC2CCCCC2)N(C)C(=O)CN(C)C(=O)CN(C)C1=O [Compound 321] ([NMeCha]I[Sar][Sar][NMeCha][Sar][hPhe(3-Cl-4-CF3)]P[Ac5c][NMeV][NMeD]-Piperidide; lactam N-11) | 100 to 500 | 11 |
| CC[C@H](C)[C@@H]1NC(=O)[C@H](CC(F)(F)F)N(C)C(=O)C[C@@H](C(=O)N2CCCC2)N(C)C(=O)[C@H](C2CCCCC2)N(C)C(=O)C2(CCCC2)NC(=O)[C@@H]2CCCN2C(=O)[C@H](CCc2ccc(C(F)(F)F)c(Cl)c2)NC(=O)CN(C)C(=O)[C@H](CC2CCCC2)N(C)C(=O)CN(C)C(=O)CN(C)C1=O [Compound 326] ([NMeAbu(4,4,4-F3)]I[Sar][Sar][NMeAla(cPent)][Sar][hPhe(3-Cl-4-CF3)]P[Ac5c][NMeChg][NMeD]-Pyrrolidide; lactam N-11) | 50 to 100 | 0.7 |
| CC[C@H](C)[C@@H]1NC(=O)[C@H](CC(C)C)N(C)C(=O)C[C@@H](C(=O)N2CCCCC2)N(C)C(=O)[C@H](CC(C)C)N(C)C(=O)C2(CCCC2)NC(=O)[C@@H]2CCCN2C(=O)[C@H](CCc2ccc(C(F)(F)F)c(F)c2)NC(=O)CN(C)C(=O)[C@H](Cc2ccc(Cl)cc2)N(CC)C(=O)CN(C)C(=O)CN(C)C1=O [Compound 328] ([NMeL]I[Sar][Sar][NEtPhe(4-Cl)][Sar][hPhe(3-F,4-CF3)]P[Ac5c][NMeL][NMeD]-Piperidide; lactam N-11) | 100 to 500 | 94 |
| CC[C@H](C)[C@@H]1NC(=O)[C@H](CC(C)C)N(C)C(=O)C[C@@H](C)N(C)C(=O)[C@H](C(C)C)N(C)C(=O)C2(CCCC2)NC(=O)[C@@H]2CCCN2C(=O)[C@H](CCc2ccc(C(F)(F)F)c(F)c2)NC(=O)CN(C)C(=O)[C@H](CC2CCCCC2)N(C)C(=O)CN(C)C(=O)CN(C)C1=O [Compound 337] (cyclo([Ac5c][NMeV][NMedβ3hAla][NMeL]I[Sar][Sar][NMeCha][Sar][hPhe(3-F,4-CF3)]P)) | 100 to 500 | 16 |
| CC[C@H](C)[C@@H]1NC(=O)[C@H](C2CCC2)N(C)C(=O)C[C@@H](C(=O)N2CCCC2)N(C)C(=O)[C@H](C2CCCCC2)N(C)C(=O)C2(CCCC2)NC(=O)[C@@H]2CCCN2C(=O)[C@H](CCc2ccc(C(F)(F)F)c(Cl)c2)NC(=O)CN(C)C(=O)[C@H](Cc2ccc(C)cc2)N(C)C(=O)CN(C)C(=O)CN(C)C1=O [Compound 339] ([NMeGly(cBu)]I[Sar][Sar][NMePhe(4-Me)][Sar][hPhe(3-Cl-4-CF3)]P[Ac5c][NMeChg][NMeD]-Pyrrolidide; lactam N-11) | 20 to 50 | 0.38 |
| CC[C@H](C)[C@@H]1NC(=O)[C@H](CC(C)C)N(C)C(=O)C[C@@H](C(=O)N(C)C)N(C)C(=O)[C@H]([C@@H](C)CC)N(C)C(=O)C2(CCCC2)NC(=O)[C@H](Cc2ccc(C)cc2)N(C)C(=O)[C@H](CCc2ccc(C(F)(F)F)c(Cl)c2)NC(=O)CN(C)C(=O)[C@H](Cc2ccc(C)cc2)N(C)C(=O)[C@@H]2CCN2C(=O)[C@H](C)N(C)C1=O [Compound 340] ([NMeL]I[NMeA][Aze][NMePhe(4-Me)][Sar][hPhe(3-Cl-4-CF3)][NMePhe(4-Me)][Ac5c][NMeI][NMeD]-NMe2; lactam N-11) | 20 to 50 | 4.7 |
| CC[C@H](C)[C@@H]1NC(=O)[C@H](C2CCC2)N(C)C(=O)C[C@@H](C(=O)N2C3CCC2COC3)N(C)C(=O)[C@H](C2CCCCC2)N(C)C(=O)C2(CCCC2)NC(=O)[C@@H]2CCCN2C(=O)[C@H](CCc2ccc(C(F)(F)F)c(Cl)c2)NC(=O)CN(C)C(=O)[C@H](Cc2ccc(C)cc2)N(C)C(=O)CN(C)C(=O)CN(C)C1=O [Compound 353] ([NMeGly(cBu)]I[Sar][Sar][NMePhe(4-Me)][Sar][hPhe(3-Cl-4-CF3)]P[Ac5c][NMeChg][NMeD]-{3Oxa8azabicyclo(3.2.1)octane}; lactam N-11) | 50 to 100 | 0.69 |
| CC[C@H](C)[C@@H]1NC(=O)[C@H](CC(C)C)N(C)C(=O)C[C@@H](C)NC(=O)[C@H](C2CCCC2)N(C)C(=O)C(C)(C)NC(=O)[C@@H]2CCCN2C(=O)[C@H](CCc2ccc(C(F)(F)F)c(Cl)c2)NC(=O)CN(C)C(=O)[C@H](Cc2ccc(C)cc2)N(C)C(=O)[C@@H]2CCN2C(=O)[C@H](C)N(C)C1=O [Compound 354] (cyclo([Aib][NMeGly(cPent)][d(β3hA)][NMeL]I[NMeA][Aze][NMePhe(4-Me)][Sar][hPhe(3-Cl-4-CF3)]P)) | 100 to 500 | 1.6 |
| CC[C@H](C)[C@@H]1NC(=O)[C@H](C)N(C)C(=O)C[C@@H](C(=O)N2CCCCC2)N(C)C(=O)[C@H](C(C)C)N(C)C(=O)C2(CCCC2)NC(=O)[C@@H]2CCCN2C(=O)[C@H](CCc2ccc(C(F)(F)F)c(Cl)c2)NC(=O)CN(C)C(=O)[C@H](CC2CCCCC2)N(C)C(=O)CN(C)C(=O)CN(C)C1=O [Compound 360] ([NMeA]I[Sar][Sar][NMeCha][Sar][hPhe(3-Cl-4-CF3)]P[Ac5c][NMeV][NMeD]-Piperidide; lactam N-11) | 100 to 500 | 2.8 |
| CC[C@H](C)[C@@H]1NC(=O)[C@H](CC(C)C)N(C)C(=O)C[C@@H](C)NC(=O)[C@H](CC(C)C)N(C)C(=O)C2(CCCC2)NC(=O)[C@@H]2CCCN2C(=O)[C@H](CCc2cc(F)c(C(F)(F)F)c(F)c2)NC(=O)CN(C)C(=O)[C@H](CC2CCCCC2)N(C)C(=O)CN(C)C(=O)CN(C)C1=O [Compound 364] (cyclo([Ac5c][NMeL][d(β3hA)][NMeL]I[Sar][Sar][NMeCha][Sar][hPhe(3,5-F2-4-CF3)]P)) | 100 to 500 | 9.7 |
| CC[C@H](C)[C@@H]1NC(=O)[C@H](CC(F)(F)F)N(C)C(=O)C[C@@H](C(=O)N2CCOCC2)N(C)C(=O)[C@H](C2CCCCC2)N(C)C(=O)C2(CCCC2)NC(=O)[C@@H]2CCCN2C(=O)[C@H](CCc2ccc(C(F)(F)F)c(Cl)c2)NC(=O)CN(C)C(=O)[C@H](CC2CCCC2)N(C)C(=O)CN(C)C(=O)CN(C)C1=O [Compound 367] ([NMeAbu(4,4,4-F3)]I[Sar][Sar][NMeAla(cPent)][Sar][hPhe(3-Cl-4-CF3)]P[Ac5c][NMeChg][NMeD]-Morpholide; lactam N-11) | 100 to 500 | 0.6 |
| CC[C@H](C)[C@@H]1NC(=O)[C@H](CC(C)C)N(C)C(=O)C[C@@H](C(=O)N(C)C)N(C)C(=O)[C@H](C2CCCC2)N(C)C(=O)C2(CCCC2)NC(=O)[C@H](Cc2cscn2)N(C)C(=O)[C@H](CCc2ccc(C(F)(F)F)c(Cl)c2)NC(=O)CN(C)C(=O)[C@H](CC2CCCCC2)N(C)C(=O)[C@@H]2CCN2C(=O)[C@H](C)N(C)C1=O [Compound 384] ([NMeL]I[NMeA][Aze][NMeCha][Sar][hPhe(3-Cl-4-CF3)][NMeAla(4-thiazolyl)][Ac5c][NMeGly(cPent)][NMeD]-NMe2; lactam N-11) | 100 to 500 | 1 |
| CC[C@H](C)[C@@H]1NC(=O)[C@H](CC(C)C)N(C)C(=O)C[C@@H](C(=O)N(C)C)N(C)C(=O)[C@H]([C@@H](C)CC)N(C)C(=O)C2(CCCC2)NC(=O)[C@H](Cc2ccc(F)cc2)N(C)C(=O)[C@H](CCc2ccc(C(F)(F)F)c(Cl)c2)NC(=O)CN(C)C(=O)[C@H](Cc2ccc(C)cc2)N(C)C(=O)[C@@H]2CCN2C(=O)[C@H](C)N(C)C1=O [Compound 385] ([NMeL]I[NMeA][Aze][NMePhe(4-Me)][Sar][hPhe(3-Cl-4-CF3)][NMePhe(4-F)][Ac5c][NMeI][NMeD]-NMe2; lactam N-11) | 50 to 100 | 4.7 |
| CC[C@H](C)[C@@H]1NC(=O)[C@H](C2CCCC2)N(C)C(=O)C[C@@H](C(=O)N2CCCCC2)N(C)C(=O)[C@H](C(C)C)N(C)C(=O)C2(CCCC2)NC(=O)[C@@H]2CCCN2C(=O)[C@H](CCc2ccc(C(F)(F)F)c(Cl)c2)NC(=O)CN(C)C(=O)[C@H](CC2CCCCC2)N(C)C(=O)CN(C)C(=O)CN(C)C1=O [Compound 393] ([NMeGly(cPent)]I[Sar][Sar][NMeCha][Sar][hPhe(3-Cl-4-CF3)]P[Ac5c][NMeV][NMeD]-Piperidide; lactam N-11) | 100 to 500 | 5.3 |
| CC[C@H](C)[C@@H]1NC(=O)[C@H](CC(C)C)N(C)C(=O)C[C@@H](C)NC(=O)[C@H](C(C)C)N(C)C(=O)C2(CCCC2)NC(=O)[C@@H]2CCCN2C(=O)[C@H](CCc2ccc(C(F)(F)F)c(Cl)c2)NC(=O)CN(CC)C(=O)[C@H](CC2CCCCC2)N(C)C(=O)CN(C)C(=O)CN(C)C1=O [Compound 395] (cyclo([Ac5c][NMeV][d(β3hA)][NMeL]I[Sar][Sar][NMeCha][NEtG][hPhe(3-Cl-4-CF3)]P)) | 100 to 500 | 47 |
| CC(C)C[C@H]1C(=O)N[C@@H](C2CCC2)C(=O)N(C)CC(=O)N(C)CC(=O)N(C)[C@@H](CC2CCCCC2)C(=O)N(C)CC(=O)N[C@@H](CCc2ccc(C(F)(F)F)c(Cl)c2)C(=O)N2CCC[C@H]2C(=O)NC2(CCCC2)C(=O)N(C)[C@@H](C2CCCCC2)C(=O)N(C)[C@H](C(=O)N2CCCCC2)CC(=O)N1C [Compound 411] ([NMeL][Gly(cBu)][Sar][Sar][NMeCha][Sar][hPhe(3-Cl-4-CF3)]P[Ac5c][NMeChg][NMeD]-Piperidide; lactam N-11) | 50 to 100 | 0.62 |
